Experimental data from patent US7618968B2, “Aryl triazines as LPAAT-β inhibitors and uses thereof” (Cell Therapeutics, Inc., priority 2001, dated 2009).
pIC50: −log10 of the molar value.

Biological target: T1, LPAAT-β (Homo sapiens, UniProt O15120)
T1 construct: the full-length human LPAAT-β cDNA was amplified by PCR; poly-histidine tag (from pFastBac HTc vector) (N); made in house; host or cells: Sf9 insect cells (baculovirus); membrane fraction used
T1 sequence (O15120 24-278): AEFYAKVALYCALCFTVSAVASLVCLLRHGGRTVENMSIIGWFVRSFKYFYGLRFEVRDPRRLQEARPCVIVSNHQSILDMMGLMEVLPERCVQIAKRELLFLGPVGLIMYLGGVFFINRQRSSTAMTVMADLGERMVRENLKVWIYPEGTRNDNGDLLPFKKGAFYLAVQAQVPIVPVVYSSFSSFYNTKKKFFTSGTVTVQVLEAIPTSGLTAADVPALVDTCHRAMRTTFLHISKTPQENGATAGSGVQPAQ
Assay: LPAAT-β cell-free assay (colorimetric primary screen, radiometric/fluorescent TLC secondary assay)
Assay type: biochemical
Details: Sf9 cell membrane overexpressing LPAAT-β
Excerpt: A. Production of Recombinant LPAAT-β for Assays
For the construction of Baculovirus expression vectors, the full-length human LPAAT-β cDNA was amplified by PCR from the DNA template pCE9.LPAAT-β (West et al., DNA Cell Biol. 16:691-701 (1997)) using the primers 5′-[…] […] […] […]-3′ (olpb1F; SEQ ID NO:1) and 5′-[…] […] […]-3′ (olpb1R; SEQ ID NO:2). The ˜870 bp fragment generated was reamplified by PCR using the primers 5′[…] […] […] […] ATC-3′ (olpb2F; SEQ ID NO:3) and 5′-[…] […] […]-3′ (olpb1R; SEQ ID NO:2). The ˜890 bp fragment generated was then cleaved with Sal I and Xba I for insertion into pFastBac™ HTc vector (Life Technologies, Gaithersberg, Md.) between the Sal I and Xba I sites for the generation of the plasmid pFB.LPAAT-β. This plasmid was then transformed into E. coli DH10Bac™ (Life Technologies, Gaithersberg, Md.) for the generation of recombinant Bacmid DNA for transfection in HighFive (Invitrogen, San Diego, Calif.) or SF9 insect cells for the production of recombinant Baculovirus stocks using the protocol described in the Bac-to-Bac® Baculovirus Expression System (Life Technologies, Gaithersberg, Md.), a eukaryotic expression system for generating recombinant baculovirus through site-specific transposition in E. coli. Viral stocks harvested from the transfected cells can then be used to infect fresh insect cells for the subsequence expression of LPAAT-β fusion protein with a poly-histidine tag and a myc-epitope near its N-terminus. The membrane fraction from these Sf9 cells would be the source of LPAAT enzyme.
B. Preparation of Cell Membranes from Sf9 Cells
For the preparation of membranes from Sf9 Cells, all steps are performed on ice or at 4° C. Sf9 cell pellets (˜10^8 cells) were thawed and resuspended in 1-2 ml of buffer A (20 mM Hepes, pH 7.5, 1 mM DTT, 1 mM EDTA, 20% w/v glycerol, 1 mM Benzamidine, 1 μg/ml soybean trypsin inhibitor (SBTI), 1 μg/ml pepstatin A) w/o DTT but with 1 mM Pefabloc. The cells were lysed by sonication using a Branson Sonifier at output=2, duty cycle=2, 10 pulses each at 10s. with the tip of small sonicator probe submerged but not touching the walls. DTT was then added to 1 mM from a 1 M stock. The samples were centrifuged at 1500 rpm for 5 min. The low speed supernatant was saved and centrifuged (TLA 100.3 rotor, polycarbonate tubes, 2 ml/tube or 1.5 ml/tube minimum) at 100000×g for 1 hr. The high speed pellet was resuspend in Buffer A with a probe sonicator (10 pulses @ output #2 and duty cycle 20%) as a source of LPAAT enzyme.
C. Assay of LPAAT-β Activity
LPAAT-β catalyzes the transfer of an acyl group from a donor such as acyl-CoA to LPA. The transfer of the acyl group from acyl-CoA to LPA leads to the release of free CoA, which can be reacted with the thiol reagent, 5,5′-dithiobis(2-nitrobenzoic acid) (DTNB). The reaction between DTNB and the free sulfhydryl group from CoA generates a yellow-colored product, 3-carboxylato-4-nitrothiophenolate (CNP), that absorbs at 413 nm. LPAAT-β derived from Sf9 cell membrane overexpressing LPAAT-β were resuspended in HEPES saline buffer (20 mM HEPES pH 7.5, 150 mM NaCl), 1 mg/ml BSA and 72 μl aliquots were distributed into 96-well microtiter plates. 8 μl of compound of interest at 200 μM dissolved in 100% DMSO was added into each well. 20 μl of 1 mM 18:1-CoA and 1 mM sn-1-18:1 lysoPA was then added to each well to initiate the reaction and allowed to run at room temperature for 25 min. 100 μl of 1 mM DTNB in 100% ethanol was then added to each well to quench the reaction and for color development. The absorbance at 405 nm, measured using a spectrophotometer plate reader, is proportional to the activity of LPAAT-β in the sample. This colorimetric assay was used for the high throughput screening of LPAAT inhibitors.

Row | SMILES | pIC50
1 | Cc1ccc(Cl)c(-c2nc(N)nc(Nc3ccc(Cl)cc3)n2)c1 [Example 83, 6-(2-chloro-5-methyl-phenyl)-N-(4-chloro-phenyl)-[1,3,5]triazine-2,4-diamine] | 6.74
2 | CCc1nc(Nc2ccc(Br)cc2)nc(-c2cc(Cl)ccc2C)n1 [Example 24] | 6.15
3 | Nc1nc(Nc2ccc(Cl)cc2)nc(-c2cc(Cl)ccc2Cl)n1 [Example 4, 6-(2,5-Dichlorophenyl)-N-(4-chlorophenyl)-[1,3,5]triazine-2,4-diamine] | 7.30
4 | Cc1ccc(Cl)cc1-c1nc(N)nc(Nc2ccc(Cl)cc2)n1 [Example 9, 6-(5-Chloro-2-methylphenyl)-N-(4-Chlorophenyl)-[1,3,5]triazine-2,4-diamine] | 7.26
5 | CCc1ccc(Nc2nc(N)nc(-c3cc(Cl)ccc3C)n2)cc1 [Example 38, 6-(5-Chloro-2-methyl-phenyl)-N-(4-ethyl-phenyl)-[1,3,5]triazine-2,4-diamine] | 6.00
6 | Cc1ccc(Cl)cc1-c1nc(N)nc(Nc2ccc(COC(=O)CN)cc2)n1 [Example 71, Amino-acetic acid 4-[4-amino-6-(5-chloro-2-methyl-phenyl)-[1,3,5]triazin-2ylamino]-benzyl ester] | 6.32
7 | Nc1nc(Nc2ccc(Cl)cc2)nc(-c2cc(Br)ccc2Cl)n1 [Example 45, 6-(5-Bromo-2-chloro-phenyl)-N-(4-chloro-phenyl)-[1,3,5]triazine-2,4-diamine] | 7.40
8 | COc1ccc(Cl)cc1-c1nc(N)nc(Nc2ccccc2)n1 [Example 2, 6-(5-Chloro-2-methoxyphenyl)-N-phenyl-[1,3,5]triazine-2,4-diamine] | 5.64
9 | CCc1cccc(Nc2nc(N)nc(-c3cc(Cl)ccc3C)n2)c1 [Example 66, 6-(5-Chloro-2-methyl-phenyl)-N-(3-ethyl-phenyl)-[1,3,5]triazine-2,4-diamine] | 6.12
10 | C#Cc1ccc(Nc2nc(N)nc(-c3cc(Cl)ccc3C)n2)cc1 [Example 42, 6-(5-Chloro-2-methyl-phenyl)-N-(4-ethynyl-phenyl)-[1,3,5]triazine-2,4-diamine] | 6.55
11 | CCOc1ccc(Cl)cc1-c1nc(N)nc(Nc2ccc(Cl)cc2)n1 [Example 7, 6-(5-Chloro-2-ethoxyphenyl)-N-(4-Chlorophenyl)-[1,3,5]triazine-2,4-diamine] | 6.85
12 | COc1ccc(Cl)cc1-c1nc(N)nc(Nc2ccc(Br)cc2)n1 [Example 10, N-2-(4-Bromophenyl)-6-(5-chloro-2-methoxyphenyl)-[1,3,5]triazine-2,4-diamine] | 7.12
13 | Cc1ccc(Cl)cc1-c1nc(N)nc(Nc2ccc(CN(C)C)cc2)n1 [Example 58, 6-(5-Chloro-2-methyl-phenyl)-N-(4-dimethylaminomethyl-phenyl)-[1,3,5]triazine-2,4-diamine] | 5.74
14 | COc1ccc(Cl)cc1-c1nc(N)nc(Nc2ccc(Cl)c(Cl)c2)n1 [Example 8, 6-(5-Chloro-2-methoxyphenyl)-N-(3,4-dichlorophenyl)-[1,3,5]triazine-2,4-diamine] | 6.85
15 | Nc1nc(Nc2ccc(Cl)cc2)nc(-c2cccc(Cl)c2)n1 [Example 16, N-(4-chlorophenyl)-6-(3-chlorophenyl)-[1,3,5]triazine-2,4-diamine] | 6.10
16 | Nc1nc(Nc2ccc(CO)cc2)nc(-c2cc(Cl)ccc2Cl)n1 [Example 46, {4-[4-Amino-6-(2,5-dichloro-phenyl)-[1,3,5]triazin-2-ylamino]-phenyl}-methanol] | 6.36

Row | SMILES | pIC50
17 | Cc1ccc(Cl)cc1-c1nc(N)nc(Nc2ccc(CC(=O)O)cc2)n1 [Example 60, {4-[4-Amino-6-(5-chloro-2-methyl-phenyl)-[1,3,5]triazin-2-ylamino]-phenyl}-acetic acid] | 5.89
18 | CN(C)c1ccc(Cl)cc1-c1nc(N)nc(Nc2ccc(Cl)cc2)n1 [Example 47, 6-(5-Chloro-2-dimethylaminophenyl)-N-(4-chlorophenyl)-[1,3,5]triazine-2,4-diamine] | 6.85
19 | Cc1ccc(Cl)cc1-c1nc(N)nc(Nc2ccc3cn[nH]c3c2)n1 [Example 13, 6-(5-Chloro-2-Methyl-Phenyl)-N-(1H-Indazol-6-yl)-[1,3,5]Triazine-2,4-Diamine] | 7.26
20 | Cc1ccc(Cl)cc1-c1nc(N)nc(Nc2ccc3c(c2)OCO3)n1 [Example 19, N-Benzo[1.3]dioxol-5-yl-6-(5-chloro-2-methyl-phenyl)-[1,3,5]triazine-2,4-diamine] | 6.70
21 | COc1ccc(Cl)cc1-c1nc(N)nc(Nc2ccc3c(c2)OCO3)n1 [Example 5, N-Benzo[1,3]dioxol-5-yl-6-(5-chloro-2-methoxyphenyl)-[1,3,5]triazine-2,4-diamine] | 6.55
22 | COc1ccc(Cl)cc1-c1nc(N)nc(Nc2ccc([N+](=O)[O-])cc2)n1 [Example 3, 6-(5-Chloro-2-methoxyphenyl)-N-(4-nitrophenyl)-[1,3,5]triazine-2,4-diamine] | 7.66
23 | COCc1ccc(Nc2nc(N)nc(-c3cc(Cl)ccc3C)n2)cc1 [Example 78, 6-(5-Chloro-2-methyl-phenyl)-N-(4-methoxy-methyl-phenyl)-[1,3,5]triazine-2,4-diamine] | 6.19
24 | Cc1ccc(Cl)cc1-c1nc(N)nc(Nc2ccc(CCl)cc2)n1 [Example 88, N-(4-Chloromethyl-phenyl)-6-(5-chloro-2-methyl-phenyl)-[1,3,5]triazine-2,4-diamine] | 6.74
25 | CCOc1ccc(Cl)cc1-c1nc(N)nc(Nc2ccc(C(O)CO)cc2)n1 (stereo not shown) [Example 69] | 5.59
26 | Cc1ccc(Cl)cc1-c1nc(N)nc(Nc2ccc(COC(=O)[C@H](C)N)cc2)n1 [Example 77, 2-Amino-propionic acid 4-[4-amino-6-(5-chloro-2-methyl-phenyl)-[1,3,5]-triazin-2-ylamino]-benzyl ester] | 5.89
27 | Cc1ccc(Cl)cc1-c1nc(Cl)nc(Nc2ccc3cn[nH]c3c2)n1 [Example 26, [4-Chloro-6-(5-chloro-2-methyl-phenyl)-[1,3,5]triazin-2-yl]-(1H-indazol-6-yl)-amine] | 8.40
28 | Cc1ccc(Cl)cc1-c1nc(N)nc(Nc2ccc3c(c2)CCC3)n1 [Example 37, 6-(5-Chloro-2-methyl-phenyl)-N-indan-5-yl-[1,3,5]triazine-2,4-diamine] | 6.23
29 | CCOc1ccc(Cl)cc1-c1nc(N)nc(Nc2ccc3cn[nH]c3c2)n1 [Example 51, 6-(5-Chloro-2-ethoxy-phenyl)-N-(1H-indazol-6-yl)-[1,3,5]triazine-2,4-diamine] | 6.22
30 | CSc1nc(Nc2ccc(Br)cc2)nc(-c2cc(Cl)ccc2C)n1 [Example 29, (4-Bromo-phenyl)-[4-(5-chloro-2-methyl-phenyl)-6-methylsulfanyl-[1,3,5]triazin-2-yl]-amine] | 5.96
31 | Cc1ccc(Cl)cc1-c1nc(Cl)nc(Nc2ccc(Br)cc2)n1 [Example 20, (4-Bromo-phenyl)-[4-chloro-6-(5-chloro-2-methyl-phenyl)-[1,3,5]triazin-2-yl]-amine] | 8.00
